Source: patent US20250353873A1, “COMPOUNDS AND METHODS FOR MODULATING APOE EXPRESSION” (Ionis Pharmaceuticals, Inc., priority 2024, published 2025)
pIC50: −log10 of the molar value. Strand notation (5' to 3'): a small letter for the sugar, then the base; units joined by * are phosphorothioate-linked, units joined directly phosphodiester-linked; [ ] holds rarer units or linkages, { } end groups; capitals alone tell only the bases. [ms] = mesyl phosphoramidate linkage; e = 2'-O-(2-methoxyethyl) (MOE); k = constrained ethyl (cEt); [5mC] = 5-methylcytosine; d = 2'-deoxy (DNA)

Tests used:
[1] = test system: human APOE RNA; test: Activity in APOE C57BL/6NTac-Apoeem7250 knock-in mice, single ICV bolus, 20 weeks (Example 13); assay type: in vivo; settings: single ICV bolus 300 μg, 20 weeks post treatment, normalized to mouse Ppia
Procedure: Modified oligonucleotides described above were tested in the APOE C57BL/6NTac-Apoeem7250 knock-in mouse model described above.
APOE C57BL/6NTac-Apoeem7250 knock-in mice were divided into groups of 4 mice each. Each mouse received a single ICV bolus of 300 μg of modified oligonucleotide. A group of 2-4 mice received a single ICV bolus with PBS as a negative control.
Twenty weeks post treatment, mice were sacrificed and RNA was extracted from cortical brain tissue and spinal cord for quantitative real-time RT-PCR analysis of RNA expression of APOE using human primer probe set RTS3073 (described herein above). APOE RNA levels were normalized to mouse Ppia. Mouse Ppia was amplified using primer probe set m_cyclo24 (described herein above). Results are presented as percent human APOE RNA relative to the amount of human APOE RNA in PBS treated animals, (% control). Each experiment is identified in separate tables below.

[2] = test system: human APOE RNA; test: Dose-dependent inhibition of human APOE RNA in HepG2 cells, electroporation, 50,000 cells per well, RT-PCR normalized to GAPDH (Example 4, Tables 8-10); assay type: cell-based; settings: HepG2, electroporation, 16-hour treatment
In short: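 HepG2 cells, 50,000 per well, electroporated with modified oligonucleotide at various concentrations. APOE RNA quantified by RT-PCR with human primer probe set RTS3073, normalized to GAPDH. Values are percent APOE RNA relative to untreated control cells.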

[3] = test system: human APOE RNA; test: Activity in APOE C57BL/6NTac-Apoeem7250 knock-in mice, single ICV bolus, 4 weeks (Example 10); assay type: in vivo; settings: single ICV bolus 300 μg, 4 weeks post treatment, normalized to mouse Ppia
In short: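 Knock-in mice (2–4 per group) received one 300 μg ICV bolus of oligonucleotide or PBS. After four weeks, human APOE RNA in cortex and spinal cord measured by RT-qPCR (primer probe set RTS3073), normalized to mouse Ppia, expressed as % of PBS controls.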

Substance | APOE RNA (% control) Cortex [1] | APOE RNA (% control) Spinal Cord [1] | APOE RNA (% UTC) ([2]; 5 nM) | APOE RNA (% UTC) ([2]; 13 nM) | APOE RNA (% UTC) ([2]; 33 nM) | APOE RNA (% UTC) ([2]; 82 nM) | APOE RNA (% UTC) ([2]; 205 nM) | APOE RNA (% UTC) ([2]; 512 nM) | APOE RNA (% UTC) ([2]; 1,280 nM) | APOE RNA (% UTC) ([2]; 3,200 nM) | APOE RNA (% UTC) ([2]; 8,000 nM) | APOE RNA (% UTC) ([2]; 20,000 nM) | pIC50 [2] | APOE RNA (% control) Cortex [3] | APOE RNA (% control) Spinal Cord [3]
1757581 (eT*eTeGeGkT*dG*dA*dA*dT*d[5mC]*dT*dT*dT*dA*dT*eTeAeA*eA*e[5mC]; antisense) [Compound 1757581] | 87 % control | 75 % control | 83 % UTC | 85 % UTC | 100 % UTC | 78 % UTC | 76 % UTC | 58 % UTC | 33 % UTC | 25 % UTC | 15 % UTC | 8 % UTC | 6.17 |  | 
1757582 (eT*eTeGkGkT*dG*dA*dA*dT*d[5mC]*dT*dT*dT*dA*dT*eTeAeA*eA*e[5mC]; antisense) [Compound 1757582] | 62 % control | 44 % control | 87 % UTC | 107 % UTC | 72 % UTC | 92 % UTC | 70 % UTC | 64 % UTC | 29 % UTC | 12 % UTC | 37 % UTC | 9 % UTC | 6.15 |  | 
1757585 (eT*eTeGkGkT*dG*dA*dA*dT*d[5mC]*dT*dT*dT*dA*dT*kTeAeA*eA*e[5mC]; antisense) [Compound 1757585] | 62 % control | 61 % control | 45 % UTC | 49 % UTC | 44 % UTC | 38 % UTC | 33 % UTC | 53 % UTC | 19 % UTC | 32 % UTC | 12 % UTC | 1 % UTC | 8.00 |  | 
1757586 (eT*eTeGeGkT*dG*dA*dA*dT*d[5mC]*dT*dT*dT*dA*dT*kTkAeA*eA*e[5mC]; antisense) [Compound 1757586] | 88 % control | 83 % control | 202 % UTC | 246 % UTC | 52 % UTC | 157 % UTC | 129 % UTC | 34 % UTC | 27 % UTC | 20 % UTC | 19 % UTC |  | 6.30 |  | 
1778107: 6-10-4 MOE gapmer ACTTGGTGAATCTTTATTAA, linkages sooossszzsssssszsss (eA*e[5mC]eTeTeG*eG*dT*dG[ms]dA[ms]dA*dT*d[5mC]*dT*dT*dT*dA[ms]eT*eT*eA*eA) [compound 1778107] | 76 % control | 32 % control |  |  |  |  |  |  |  |  |  |  |  | 70 % control | 70 % control
1778108 (eA*e[5mC]eTeTeG*kG*dT*dG[ms]dA[ms]dA*dT*d[5mC]*dT*dT*dT*dA[ms]eT*eT*eA*eA; antisense) [Compound 1778108] | 70 % control | 21 % control |  |  |  |  |  |  |  |  |  |  |  | 60 % control | 41 % control
1778109: 6-10-4 MOE gapmer ACTTGGTGAATCTTTATTAA, linkages sooossszzsssssszoss (eA*e[5mC]eTeTeG*eG*dT*dG[ms]dA[ms]dA*dT*d[5mC]*dT*dT*dT*dA[ms]eTeT*eA*eA) [compound 1778109] | 81 % control | 34 % control |  |  |  |  |  |  |  |  |  |  |  | 59 % control | 61 % control
